The test system of data set [1] is patients. As to conditions: according to the manufacturer; cited from earlier work.
Data set [2] has as its system intraocular pressure. Put plainly: intraocular pressure in rabbits with glucose-elevated IOP. The class given is in vivo, rabbit. As to conditions: 10 μL instilled, 12-15 minutes after dosing. On the procedure:
Intraocular pressure (IOP) was increased in conscious rabbits by intravenous injections of glucose. The test compound was administered by instillation into the conjunctival sac immediately after the glucose injection and all measurements were made approximately 12-15 minutes after dosing. […] Thus, 10 μL of solutions containing 3.5 or 7.0 or 14.0 mg/ml in Tears Naturale® were instilled into the conjunctival sac. Tears Naturale® was used as control solution. TOP was measured using a manometrically calibrated BIO-RAD Digilab pneumatonometer. Tetracaine (10 μl, 0.5%) was applied to the cornea before the IOP measurements. N=7 Dutch Belted rabbits/group (2-4 kg; M and F).

In data set [3] the test system is intraocular pressure. Put plainly: normal intraocular pressure in Dutch-Belted rabbits. As to conditions: 4.1% in saline, twice daily for 5 days. The data set is classed as in vivo, rabbit. On the procedure:
Intraocular pressure was measured twice daily using the methodology stated above.

Data set [4] deals with lacrimal gland secretion. Put plainly: lacrimal secretion (Schirmer) after intravenous administration in conscious rabbits. The data set is classed as in vivo, rabbit. On the procedure: In short, Schirmer strips are strips of filter papers, which are in part inserted into the conjunctival sac and in part hanging out from the conjunctival sac. The Schirmer strips absorb the watery tear fluid as can be observed as wetting of the strips. The length of the wetted area is measured and is an indicator of the amount of available tear fluid in the conjunctival sac. […] The average pre-dose value (from three Schirmer readings in each animal) was compared with the average of four readings during the infusions of R-salbutamol.

The target in data set [5] is T1, human β3 receptors (Homo sapiens, UniProt P13945).
T1 construct: expressed in transfected cells; host or cells: SK-N-MC cells
As to the kind of experiment: human β3 adrenergic receptor binding, [125I]CYP. The text has this: The specific ligand binding to the receptors is defined as the difference between the total binding and the nonspecific binding determined in the presence of an excess of unlabelled ligand.

Data set [6] relates to Meibomian gland secretion. As to the kind of experiment: Meibomian gland secretion (Meibometer) after intravenous infusion in conscious beagle dogs. The class given is in vivo, dog. As to conditions: for Meibomian gland secretion: pre-infusion 248±9 MU. On the procedure:
. A Meibometer (MB550, Courage-Khazaka GmbH, Koln, Germany) was used to measure the delivery rate of lipids from the Meibomian glands. The measurements were performed in conscious beagle dogs. To reduce variability all studies were performed by a single individual, who had obtained extensive training with the instrumentation and was used to the handling of conscious laboratory dogs. The methodology has been described by Benz, P., et al. 2008, which publication is hereby included by reference, although new and improved computer software was used in the present studies.

Data set [7] has as its system Meibomian gland secretion. Put plainly: Meibomian lipid secretion (Meibometer) after ocular instillation in conscious beagle dogs. The class given is in vivo, dog. As to conditions: Day 3, 4.0 percent in saline, single eye drops three times daily; vehicle 174 MU. The procedure:
A Meibometer was used to measure the delivery rate of lipids from the Meibomian glands. The measurements were performed in conscious beagle dogs and the test methodology is described above (Example 6). In these experiments, Meibomian secretion was measured in saline vehicle-treated dogs and in groups of dogs that were treated with a test article, daily at about 9 AM, 11 AM and 1 PM with single eye drops. […] Both eyes were treated and a total of six dogs were used for each treatment group.

The nature of data set [8]: solubility in water. The data set is classed as physicochemical.
Data set [9] concerns intraocular pressure. As to the kind of experiment: night-time intraocular pressure in Dutch-Belted rabbits. As to conditions: for increase of IOP: night-time IOP, ocular instillation. The data set is classed as in vivo, rabbit. The procedure: Intraocular pressure (IOP) in rabbits is considerably higher during the night than during the day. The present experiments were conducted in Dutch-Belted rabbits in which IOP was higher during daytime as a consequence of switching the night/day cycle by exposing the animals to 12 hours of light during the night and 12 hours of darkness during daytime. […]

Data set [10] has as its system eyes of New Zealand White rabbits. As to the kind of experiment: ocular irritation, Draize scoring in New Zealand White rabbits.
Experimental: As a vehicle control 0.1 ml of 0.9% sodium chloride for injection (B. Braun; Lot No. J9A692) was instilled in the conjunctival sac of the left eye of all the rabbits. […] Draize scoring was assessed 30 minutes, 4 hours and 24 hours after the instillations of the placebo control (saline) and the test article solutions.
The grades of ocular reaction (conjunctivae, cornea, and iris) were determined at each examination.
In data set [11] the test system is Meibomian gland secretion. As to the kind of experiment: Meibomian gland secretion in vivo (Meibometer), other agonists. On the procedure:
Meibomian gland secretion was measured with a Meibometer (Courage-Khazaka Electronic GmbH, 50829 Cologne) and was increased in vivo as described in Examples 6 and 7, hereinafter.

T1 sequence (P13945 whole entry): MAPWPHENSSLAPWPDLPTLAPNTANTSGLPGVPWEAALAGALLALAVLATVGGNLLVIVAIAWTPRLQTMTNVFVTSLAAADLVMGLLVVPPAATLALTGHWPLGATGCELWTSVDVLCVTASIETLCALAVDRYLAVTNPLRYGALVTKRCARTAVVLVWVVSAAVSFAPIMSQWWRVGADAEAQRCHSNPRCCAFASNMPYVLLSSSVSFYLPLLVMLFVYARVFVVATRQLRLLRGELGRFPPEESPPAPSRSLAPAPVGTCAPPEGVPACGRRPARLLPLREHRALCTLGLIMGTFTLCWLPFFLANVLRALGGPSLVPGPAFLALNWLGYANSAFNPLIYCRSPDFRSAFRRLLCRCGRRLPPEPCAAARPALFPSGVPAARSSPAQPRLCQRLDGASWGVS

Regarding `CNC[C@H](O)c1ccc(O)c(O)c1` [epinephrine], the “patients with epinephrine intolerance” value in data set [1] was 55%.
In the case of `CNCC(O)c1ccc(OC(=O)C(C)(C)C)c(OC(=O)C(C)(C)C)c1` (centres unmarked) [dipivefrin], the “patients with epinephrine intolerance” value in data set [1] is 3%.
For the molecule `CC(C)(C)NC[C@H](O)COc1nsnc1N1CCOCC1` [timolol], the “intraocular pressure lowered (vs control animals), mean±SEM” value in data set [2] (3.5 mg/ml) is listed as 4.7±1.3 mmHg; in data set [2] (7.0 mg/ml), 4.6±1.0 mmHg; in [2] (14.0 mg/ml) it was 4.7±1.3 mmHg.
`CC(C)(C)NC[C@H](O)c1ccc(O)c(CO)c1` [R-salbutamol, R(−)-isomer of a′[(tert-butylamino)methyl]-4-hydroxy-m-xylene-a,a′-diol]: the “increase in IOP” value in data set [3] was “No increase in IOP was observed”. For the same molecule, the “wetting of the Schirmer strips” value in data set [4] (during iv infusion 30 μg/kg/min for 20 min, predose 20.3±1.6, six eyes) turned out to be 33.8±2.3 millimeter. Moreover, the “increased wetting of the Schirmer strips” value in data set [4] (iv 30 μg/kg/min, versus predose) is given as “approximately 66%”. The “affinity for beta-3 receptors” value in data set [5] is “practically no affinity”. Moreover, the “intraocular pressure lowered (vs control animals), mean±SEM” value stood at 5.5±1.3 mmHg in [2] (3.5 mg/ml), 6.7±1.5 mmHg in data set [2] (7.0 mg/ml) and 5.8±1.3 mmHg in data set [2] (14.0 mg/ml). Besides, the results for the Meibomian gland secretion in [6] (during twenty-minute iv infusion 30 μg/kg/min) and in data set [6] (ten minutes post-infusion) were 235±23 MU and 316±26 MU, respectively. For the same molecule, the “difference between pre-infusion and post-infusion secretion” value in data set [6] (iv 30 μg/kg/min for 20 min) was “approximately 27%”. In addition, the “Meibomian secretion, mean” value in data set [7] is 304 MU. For the same molecule, the “concentration dissolved in water” value in data set [8] was “in excess of five percent by weight”. Moreover, the solubility in water result in [8] is given as “readily soluble in water”. Moreover, the “Δ mmHg, nighttime intraocular pressure” value in data set [9] (R-Hi 1.0%) is given as −11 mmHg; in [9] (R-Hi 1.0%, 1 PM), −10 mmHg; in data set [9] (R-Hi 1.0%, 3 PM), −3 mmHg; in [9] (R-Hi 1.0%, 5 PM), −2 mmHg; in [9] (R-Hi 1.0%, 9:00 (instillation)) it was 0 mmHg; in data set [9] (R-Hi 1.0%, 9:30), −7 mmHg. Besides, the “Δ mmHg, nighttime intraocular pressure” value in data set [9] (R-Hi 1.0%, 10 AM) was −8 mmHg; in data set [9] (R-Lo 0.33%, 1 PM) it was −4 mmHg; in [9] (R-Lo 0.33%, 3 PM) it was −3 mmHg; in data set [9] (R-Lo 0.33%, 5 PM), −2.5 mmHg; in data set [9] (R-Lo 0.33%, 9:00 (instillation)), 0 mmHg; in data set [9] (R-Lo 0.33%, 9:30), −7 mmHg. For the same molecule, the “Δ mmHg, nighttime intraocular pressure” value is reported as −9 mmHg in data set [9] (R-Lo 0.33%, 10 AM) and −9 mmHg in data set [9] (R-Lo 0.33%, 11 AM). Moreover, in data set [9], the “increase of IOP” value was “Neither racemic nor isomeric salbutamol increased IOP”. For the same molecule, the “Mean Post-Instillation Irritation Score” value in [10] (0.1% in saline, 4 Hours) is 0; in data set [10] (0.1% in saline, 24 Hours) it was 0; in [10] (0.1% in saline, 30 Minutes) it was 0; in [10] (0.5% in saline, 4 Hours) it was 0; in data set [10] (0.5% in saline, 24 Hours), 0; in data set [10] (0.5% in saline, 30 Minutes) it was 0. In addition, the “Mean Post-Instillation Irritation Score” value was 0 in data set [10] (5.0% in saline, 4 Hours); 0 in data set [10] (5.0% in saline, 24 Hours); 0 in [10] (5.0% in saline, 30 Minutes). Also, the ocular irritancy entry in [10] (single-dose, in saline, concentrations up to 5%) is given as “not irritants”.
For the molecule `CC(C)(C)NC[C@@H](O)c1ccc(O)c(CO)c1` [S-salbutamol], the “Meibomian gland secretion in vivo” value in data set [11] is recorded as “may also increase Meibomian gland secretion”.
On to `CC(C)(C)NCC(O)c1ccc(O)c(CO)c1` (racemic) [salbutamol, a′[(tert-butylamino)methyl]-4-hydroxy-m-xylene-a,a′-diol], for which the “affinity for beta-3 receptors” value in [5] is “practically no affinity”. Also, in [8], the solubility in water result is listed as “readily soluble in water”. Moreover, the “Δ mmHg, nighttime intraocular pressure” value is recorded as −7 mmHg in data set [9] (RS-Hi 2.0%, 1 PM); −4 mmHg in data set [9] (RS-Hi 2.0%, 3 PM); −0 mmHg in data set [9] (RS-Hi 2.0%, 5 PM); 0 mmHg in [9] (RS-Hi 2.0%, 9:00 (instillation)); −9 mmHg in data set [9] (RS-Hi 2.0%, 9:30); −9 mmHg in data set [9] (RS-Hi 2.0%, 10 AM). In addition, the “Δ mmHg, nighttime intraocular pressure” value in data set [9] (RS-Hi 2.0%, 11 AM) was −9 mmHg; in data set [9] (RS-Lo 0.67%, 1 PM) it was −5 mmHg; in data set [9] (RS-Lo 0.67%, 3 PM), −2 mmHg; in [9] (RS-Lo 0.67%, 5 PM) it was −0.5 mmHg; in [9] (RS-Lo 0.67%, 9:00 (instillation)), 0 mmHg; in data set [9] (RS-Lo 0.67%, 9:30) it was −6 mmHg. The “Δ mmHg, nighttime intraocular pressure” value in data set [9] (RS-Lo 0.67%, 10 AM) was −6 mmHg; in data set [9] (RS-Lo 0.67%, 11 AM), −6 mmHg. Also, the “increase of IOP” value in data set [9] was “Neither racemic nor isomeric salbutamol increased IOP”.
For the molecule `CC(CCc1ccc(O)cc1)NCC(O)c1ccc(O)cc1` (racemic) [RR/SR ractopamine, ractopamine], the “Meibomian gland secretion in vivo” value in data set [11] is given as “ability to increase Meibomian gland secretion in vivo”.

Values taken from patent US20110294897A1, “Treating Xerophthalmia With Compounds Increasing Meibomian Gland Secretion” (Bridge Pharma, Inc., priority 2009, published 2011).
